Data on one compound can be found in patent publication US20100168049A1, “COMBINATION OF MONOSACCHARIDES AND ADENOSINE AND USE THEREOF” (L'OREAL, priority 2008, published 2010).

The test system of experiment [1] is dermal fibroblasts of the reconstructed skin. In words: Proliferation of fibroblasts in whole reconstructed skin (propidium iodide nuclei count). Format: cell-based, human. The settings on record: 5 mM; within 48 hours of treatment. An excerpt: Rhamnose was studied on a model of whole reconstructed skin in order to measure its anti-ageing efficacy on the dermal compartment.
Briefly, the model of reconstructed skin used is that described by Bell et al. (Bell E. et al., The reconstitution of living skin, J. Invest. Dermatol., 1983, July; 81): it includes a dermal equivalent on which is reconstructed a multistratified epidermis; the dermal equivalent is manufactured from acid-soluble collagen, culture medium containing serum and normal adult human fibroblasts. After 5 days of shrinkage, this equivalent is inoculated with keratinocytes and then cultured for 6 days in immersion and for 7 days in emersion in order to obtain a multistratified and differentiated epidermis having a horny layer.
The reconstructed skin is treated with 5 mM rhamnose for 2 days and 5 days in the culture medium; after the treatment, the reconstructed skins are included in Tissue Tek in order to produce frozen sections 7 μm thick with a cryostat. […] Three frozen sections are prepared at random on each reconstructed skin; on each section, two microscopic fields (25× objective lens) are analysed by fluorescence microscopy and photographed. The dermal fibroblasts are thus counted for each reconstructed skin on six images in total representing the six microscopic fields considered. […]

For experiment [2], the system named is type I procollagen. Description: Synthesis of procollagen 1 in reconstructed skin (indirect immunofluorescence). The settings on record: for procollagen 1 synthesis: reconstructed skin. Format: cell-based, human. The method, then:
Conventional detection via indirect immunofluorescence of type I procollagen in the dermis of the reconstructed skin was also performed on other series of frozen sections (anti-procoll 1 antibody (MAB 1912 Millipore)+FTIC-coupled conjugate (112-095-068 Jackson Immunoresearch)). In order to obtain bearings within the cutaneous architecture during the microscopic examination of the sections, the cell nuclei of the keratinocytes and fibroblasts are localized by staining them with propidium iodide, as described above. Three frozen sections are prepared at random on each reconstructed skin and on each section, and two microscopic fields (25× objective lens) are analysed by fluorescence microscopy and photographed. The levels of fluorescence proportional to the amount of type I procollagen are compared between the control skin and the skin treated with rhamnose.

The subject of experiment [3] is keratinocytes (HaCat line). In words: Proliferation of keratinocytes (Cyquant, Nile red, XTT markers). Format: cell-based. As to the method:
The keratinocytes (HaCat line) are cultured under two conditions: whole defined culture medium (standard condition) and culture medium deficient in growth factors. This deficient medium gives rise to a controlled delay in cell proliferation. Under these conditions, it is then possible to measure the effects of compounds capable of compensating for the deficiency in growth factors of the culture medium and thus of relaunching the cell multiplication and/or of stimulating cell metabolism.
The keratinocyte proliferation is measured by means of three markers on the same cell population: the level of DNA, which is proportional to the number of cells (Cyquant probe), the level of constituent polar lipids of cell membranes (Nile red probe) and the mitochondrial respiration, which reflects the general cell metabolism (XTT probe).

On to `C[C@H](O)[C@H](O)[C@@H](O)[C@@H](O)C=O` [rhamnose, L-rhamnose], for which the “growth of the dermal fibroblasts” value in experiment [1] is reported as “stimulation of growth”. Besides, in experiment [2] (1 mM, 120 hours), the “green fluorescence (proportional to the amount of type I procollagen) vs control skin” value is given as “marked increase”. In experiment [2] (1 mM, 120 hours), the “synthesis of type I procollagen by the fibroblasts” value was “greatly stimulated”. Besides, the “procollagen 1 synthesis” value in experiment [2] (1 mM) and in experiment [2] (5 mM) was “stimulation of procollagen 1 synthesis” throughout. Also, the keratinocyte proliferation result in experiment [3] (keratinocytes cultured in medium depleted in growth factors) is reported as “activate keratinocyte proliferation”. Moreover, the “number of cells compared with an untreated control” value in experiment [3] (medium depleted in growth factor) is given as “higher number of cells”.
